Tests used:
D458 cells [1] = assay: Proliferation assay D458; format: cell-based, human; conditions: D458, stable knockdown of PVT1ts vs sh.Cntrl; two-way ANOVA
MYC [2] = assay: Western blot of MYC in D458; format: cell-based, human; conditions: D458, stable knockdown of PVT1ts vs sh.Cntrl; n=3, unpaired t-test
Description: For whole-cell lysate, the cell pellet was resuspended in RIPA buffer (Cell Signaling Technologies, Danvers, MA) supplemented with a protease inhibitor cocktail (Cell Signaling Technologies) and incubated on ice for 20 minutes. The lysate was then centrifuged at 14,000 revolutions/minute for 10 minutes at 4°C, and the supernatant was harvested. Protein concentration was quantified by BCA Protein Assay Kit (Thermo Fisher Scientific) as per kit protocol. Next, 20 μg of whole-cell lysate was electrophoresed on a 4%–20% gradient polyacrylamide gel with SDS (Bio-Rad, Hercules, CA) and electroblotted onto polyvinylidene difluoride membranes (Bio-Rad). Membranes were blocked in Tris-buffered saline with 5% nonfat milk and 0.1% Tween and probed with antibodies. Bound proteins were detected with horseradish-peroxidase–conjugated secondary antibodies (Cell Signaling Technologies) and SuperSignal West Femto (Thermo Fisher Scientific). Antibodies used were anti-c-MYC (Cell Signaling Technology, 5605, anti-Phospho-c-MYC (Ser62) (Cell Signaling Technology, 13748), anti-β ACTIN (Cell Signaling Technology, 8457), anti-Phospho-p44/42 (Erk1/2) (Thr202/Tyr204) (Cell Signaling Technology, 4370), anti-p44/42 (Erk1/2) (Cell Signaling Technology, 4695), anti-Phospho-MEK1/2 (Ser217/221) (Cell Signaling Technology, 9154), anti-MEK1/2 (Cell Signaling Technology, 9122), anti-Phospho-p90RSK (Ser380) (Cell Signaling Technology, 11989), anti-RSK1/RSK2/RSK3 (Cell Signaling Technology, 9355), Anti-Rabbit IgG, HRP-linked Antibody (Cell Signaling Technology, 7074). Anti-FFX (Firefox) monoclonal antibodies were custom produced by Proteintech using FFX residues 13–104 as epitope.
The HNB ORF and eGFP (control) were cloned in an inducible lentivirus expression, TRE-gateway plasmid (pLIX_403, Addgene, #41395). Lentivirus was produced in HEK293T cells using the protocol described above. D458, NCI-H1792 and COLO 320DM cells were transfected with inducible HNB lentivirus and selected with 1 μg/mL concentration of Puromycin. Selected cells were seeded at a concentration of 4 × 10^5 cells per well. After 24 hours of seeding, the cells were treated with 1 μg/mL Doxycycline for 48 hours. The cells were then lysed using RIPA buffer and 1X protease inhibitor cocktail. The protein lysates were collected and quantified using the previously described protocol. 20 μg of whole-cell lysate was electrophoresed on a 4%–20% gradient polyacrylamide gel with SDS (Bio-Rad, Hercules, CA) and electroblotted onto polyvinylidene difluoride membranes (Bio-Rad). […] Bound proteins were detected with horseradish-peroxidase–conjugated secondary antibodies (Cell Signaling Technologies) and SuperSignal West Femto (Thermo Fisher Scientific). […]

D458 cells [3] = assay: Orthotopic transplantation of D458 into brains of immunocompromised mice; format: in vivo; conditions: D458 sh.RNA1-PVT1ts vs sh.Cntrl in mouse brain; bioluminescence day 9, 14, 21; n=10 each, unpaired t-test
Description: All animal procedures were conducted in accordance with the guidelines established by the Institutional Animal Care and Use Committee of Sanford Burnham Prebys Medical Discovery Institute. Efforts were made to minimize animal suffering and to reduce the number of animals used as per the guidelines of AAALAC International and a Multiple Project Assurance A3053–1 is on file in the OLAW, DHHS.

U2OS cells = assay: Proliferation assay U2OS; format: cell-based, human; conditions: si.PVT1ts vs si_ctrl, n=3, two-way ANOVA
Source text: (§1) Cancer cell lines: COLO-320DM, SK-PN-DW, U2OS, BxPC-3, DU145, SKBR-3 and, NCI-H1792 were obtained from American Type Culture Collection (Rockville, MD) and grown in their required growth medium per the American Type Culture Collection description. D458 and MB002 were obtained from Dr. Michael Taylor’s lab at SickKids hospital, Toronto. Cell line identity for the master stocks were verified by STR genotyping (IDEXX BioResearch)
(§2) Supplementary Figure 14: Analysis of Cell Proliferation in MYC/PVT1 Neutral Cell Lines
(§3) (U2OS, BxPC-3, DU-145) following Transfection with si_PVT1ts or si_ctrl: Each experiment
(§4) was performed in triplicate (n=3), and statistical significance was determined using two-way
(§5) ANOVA (P values indicated)
(§6) .CC-BY 4.0 International licenseavailable under a
(§7) (which was not certified by peer review) is the author/funder, who has granted bioRxiv a license to display the preprint in perpetuity. It is made
(§8) The copyright holder for this preprintthis version posted February 22, 2025.; https://doi.org/10.1101/2025.02.17.638454doi: bioRxiv preprint […]

BxPC-3 cells = assay: Proliferation assay BxPC-3; format: cell-based, human; conditions: BxPC-3, si.PVT1ts vs si_ctrl; n=3, two-way ANOVA
Source text: as §1, §2, §3, §4, §5, §6, §7, §8

DU-145 cells = assay: Proliferation assay DU-145; format: cell-based, human; conditions: DU-145, si.PVT1ts vs si_ctrl; n=3, two-way ANOVA
Source text: as §1, §2, §3, §4, §5, §6, §7, §8

MYC [4] = assay: Western blot of MYC in U2OS; format: cell-based, human; conditions: si.PVT1ts vs si.Ctrl, n=3, unpaired t-test
Description: (§9) For whole-cell lysate, the cell pellet was resuspended in RIPA buffer (Cell Signaling Technologies, Danvers, MA) supplemented with a protease inhibitor cocktail (Cell Signaling Technologies) and incubated on ice for 20 minutes. The lysate was then centrifuged at 14,000 revolutions/minute for 10 minutes at 4°C, and the supernatant was harvested. Protein concentration was quantified by BCA Protein Assay Kit (Thermo Fisher Scientific) as per kit protocol. Next, 20 μg of whole-cell lysate was electrophoresed on a 4%–20% gradient polyacrylamide gel with SDS (Bio-Rad, Hercules, CA) and electroblotted onto polyvinylidene difluoride membranes (Bio-Rad). Membranes were blocked in Tris-buffered saline with 5% nonfat milk and 0.1% Tween and probed with antibodies. Bound proteins were detected with horseradish-peroxidase–conjugated secondary antibodies (Cell Signaling Technologies) and SuperSignal West Femto (Thermo Fisher Scientific). […]
Supplementary Figure 10: FFX protein augments MYC expression (A) Western blot analysis of MYC expression in U2OS cells ectopically transduced with constructs expressing GFP (control) or FFX. […] (C&D) Western blot analysis and quantification of MYC expression in U2OS cells transduced with GFP (control), FFX, FFX(CO), and FFX ATG>TGA. […]

MYC [5] = assay: Western blot of MYC in BxPC-3; format: cell-based, human; conditions: BxPC-3, si.PVT1ts vs si.Ctrl; n=3, unpaired t-test
Description: as §9

MYC [6] = assay: Western blot of MYC in DU-145; format: cell-based, human; conditions: DU-145, si.PVT1ts vs si.Ctrl; n=3, unpaired t-test
Description: as §9

Question: “shRNA1-PVT1ts: shRNA against PVT1ts, CCGGGGACAGCTTCAACCCATTACG CTCGAGCGTAATGGGTTGAAGCTGTCCTTTTTG (CCGGGGACAGCTTCAACCCATTACGCTCGAGCGTAATGGGTTGAAGCTGTCCTTTTTG)” was tested. Which cellular proliferation (D458 cells [1]) did it give?
Answer: Its cellular proliferation is “increased proliferation”.

Question: And the MYC protein levels (MYC [2])?
Answer: Its MYC protein levels is “increased proliferation (Figure 4D) and MYC protein levels”.

Question: What about the “tumor growth after orthotopic injection” value (D458 cells [3]) of the same substance?
Answer: The value was “grew significantly more aggressively than controls”.

Question: Which cellular proliferation (D458 cells [1]) does the source give for “shRNA2-PVT1ts: shRNA against PVT1ts, CCGGACCTATGAGCTTTGAATAATT CAAGAGATTATTCAAAGCTCATAGGTTTTTT (CCGGACCTATGAGCTTTGAATAATTCAAGAGATTATTCAAAGCTCATAGGTTTTTT)” here?
Answer: The cellular proliferation was “increased proliferation”.

Question: And the MYC protein levels (MYC [2])?
Answer: The MYC protein levels was “increased proliferation (Figure 4D) and MYC protein levels”.

Question: With “si.PVT1ts: siRNA targeting variants containing exons 7–9, 5’-ACCUAUGAGCUUUGAAUAA-3’ (other strand not given here)” as the substance, how does the cellular proliferation (U2OS cells) read?
Answer: The cellular proliferation was “proliferate faster”.

Question: And the cellular proliferation (BxPC-3 cells)?
Answer: The cellular proliferation was “proliferate faster”.

Question: And the cellular proliferation (DU-145 cells)?
Answer: Its cellular proliferation is “proliferate faster”.

Question: And the MYC protein levels (MYC [4])?
Answer: The MYC protein levels was “increase in MYC protein levels”.

Question: What about the MYC protein levels (MYC [5]) of the same substance?
Answer: The MYC protein levels was “increase in MYC protein levels”.

Question: And the MYC protein levels (MYC [6])?
Answer: The MYC protein levels was “increase in MYC protein levels”.
